What is called IC50 is the concentration at which inhibition is half-maximal.

Structures are written as SMILES.

In the first assay the target is T1, recombinant human PDK1 (Homo sapiens, UniProt O15530).
T1 construct: containing amino acids 51-556 of the human PDK1 enzyme; made in house; host or cells: Sf9 insect cells
T1 sequence (O15530 51-556): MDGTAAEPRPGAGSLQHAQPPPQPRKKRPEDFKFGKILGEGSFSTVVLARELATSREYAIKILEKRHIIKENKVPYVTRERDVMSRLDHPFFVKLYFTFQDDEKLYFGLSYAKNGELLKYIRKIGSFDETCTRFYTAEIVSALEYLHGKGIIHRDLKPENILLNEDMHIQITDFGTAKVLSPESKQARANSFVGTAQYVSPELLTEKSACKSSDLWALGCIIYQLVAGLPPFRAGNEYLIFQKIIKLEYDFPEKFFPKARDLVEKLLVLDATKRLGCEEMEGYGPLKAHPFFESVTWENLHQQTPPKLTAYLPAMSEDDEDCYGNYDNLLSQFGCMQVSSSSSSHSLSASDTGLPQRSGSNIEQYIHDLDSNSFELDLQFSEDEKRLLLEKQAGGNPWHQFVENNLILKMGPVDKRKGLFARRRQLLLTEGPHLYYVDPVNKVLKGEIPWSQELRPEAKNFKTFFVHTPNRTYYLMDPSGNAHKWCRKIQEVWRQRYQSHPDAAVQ
In words: PDK1 IMAP fluorescence polarization assay (inhibition of peptide substrate phosphorylation). The class given is biochemical. Particulars: Table 6; 10 nM PDK1 enzyme, 100 nM peptide substrate, 100 nM PIFtide, 2.5 uM ATP, 1.5 hours.
For `NCC1CCN(c2c(F)cccc2NC(=O)c2nc(-c3cc(NCc4ccc(F)cc4)nc(N)n3)c[nH]2)CC1` [Compound 71, 4-[2-amino-6-[[(4-fluorophenyl)methyl]amino]-4-pyrimidinyl]-N-[2-[4-(aminomethyl)-1-piperidinyl]-3-fluorophenyl]-1H-imidazole-2-carboxamide], the IC50 is 1 to 50 nM.

For the molecule `COc1cc(-c2c[nH]c(C(=O)Nc3cccc(F)c3N3CCC[C@@H](N)C3)n2)ccn1` [Compound 21, N-[2-(3(R)-amino-1-piperidinyl)-3-fluorophenyl]-4-(2-methoxy-4-pyridinyl)-1H-imidazole-2-carboxamide], the IC50 fell in the range of 51 to 250 nM.

Regarding `Cc1cc(-c2c[nH]c(C(=O)Nc3cccc(F)c3N3CCC(C(=O)N4CCC4)CC3)n2)ccn1` [Compound 66, N-[2-[4-(1-azetidinylcarbonyl)-1-piperidinyl]-3-fluorophenyl]-4-(2-methyl-4-pyridinyl)-1H-imidazole-2-carboxamide], the IC50 lay in the range of 1000 to 5000 nM. As for `N#Cc1cccc(-c2c[nH]c(C(=O)Nc3cccc(F)c3N3CCC(CN)CC3)n2)n1` [Compound 44, N-[2-[4-(aminomethyl)-1-piperidinyl]-3-fluorophenyl]-4-(6-cyano-2-pyridinyl)-1H-imidazole-2-carboxamide], the IC50 lay in the range of 251 to 1000 nM. For the molecule `COc1ccc(CNc2cc(-c3c[nH]c(C(=O)Nc4cccc(F)c4N4CCC(CN)CC4)n3)nc(N)n2)cc1OC` [Compound 76, 4-[2-amino-6-[[(3,4-dimethoxyphenyl)methyl]amino]-4-pyrimidinyl]-N-[2-[4-(aminomethyl)-1-piperidinyl]-3-fluorophenyl]-1H-imidazole-2-carboxamide], the IC50 fell in the range of 251 to 1000 nM. Still for that read-out and setting: under `NCC1CCN(c2c(F)cccc2NC(=O)c2nc(-c3cncnc3)c[nH]2)CC1` [Compound 63, N-[2-[4-(aminomethyl)-1-piperidinyl]-3-fluorophenyl]-4-(5-pyrimidinyl)-1H-imidazole-2-carboxamide] stands 1000 to 5000 nM; under `Nc1ccc(N2CCC[C@@H](N)C2)c(NC(=O)c2ncc[nH]2)c1` [Compound 1, N-[5-amino-2-(3(R)-amino-1-piperidinyl)phenyl]-1H-imidazole-2-carboxamide], 51 to 250 nM.

In the case of `N[C@@H]1CCCN(c2c(F)cccc2NC(=O)c2nc(-c3ccnc(O)c3)c[nH]2)C1` [Compound 25, N-[2-(3(R)-amino-1-piperidinyl)-3-fluorophenyl]-4-(2-hydroxy-4-pyridinyl)-1H-imidazole-2-carboxamide], the IC50 is 1000 to 5000 nM. As for `Cc1cc(-c2c[nH]c(C(=O)Nc3cccc(F)c3N3CCC(C(=O)N4CC[C@@H](F)C4)CC3)n2)ccn1` [Compound 92, N-[3-fluoro-2-[4-[(3(R)-fluoro-1-pyrrolidinyl)carbonyl]-1-piperidinyl]phenyl]-4-(2-methyl-4-pyridinyl)-1H-imidazole-2-carboxamide], the IC50 fell in the range of 1000 to 5000 nM. On the same count and under the same terms, the figure for `CNCC1CCN(c2c(F)cccc2NC(=O)c2nc(-c3ccnc(C)c3)c[nH]2)CC1` [Compound 57, N-[3-fluoro-2-[4-[(methylamino)methyl]-1-piperidinyl]phenyl]-4-(2-methyl-4-pyridinyl)-1H-imidazole-2-carboxamide] is 251 to 1000 nM; for `CNC1(C(N)=O)CCN(c2ccc(N)cc2NC(=O)c2ncc[nH]2)CC1` [Compound 2, 1-[4-amino-2-[(1H-imidazol-2-ylcarbonyl)amino]phenyl]-4-(methylamino)-4-piperidinecarboxamide] it is 1000 to 5000 nM; for `NCC1CCN(c2ccc(N)cc2NC(=O)c2ncc[nH]2)CC1` [Compound 3, N-[5-amino-2-[4-(aminomethyl)-1-piperidinyl]phenyl]-1H-imidazole-2-carboxamide] it is 251 to 1000 nM. On to `Cc1cc(-c2c[nH]c(C(=O)Nc3cccc(F)c3N3CCC[C@@H](N)C3)n2)nc(N)n1` [Compound 29, 4-(2-amino-6-methyl-4-pyrimidinyl)-N-[2-(3(R)-amino-1-piperidinyl)-3-fluorophenyl]-1H-imidazole-2-carboxamide], for which the IC50 lay in the range of 1 to 50 nM. Same read-out and setting: under `Cc1cc(-c2c[nH]c(C(=O)Nc3cccc(F)c3N3CCC[C@@H](N)C3)n2)ccn1` [Compound 8, N-[2-(3(R)-amino-1-piperidinyl)-3-fluorophenyl]-4-(2-methyl-4-pyridinyl)-1H-imidazole-2-carboxamide] stands 1 to 50 nM; under `Cc1cc(-c2c[nH]c(C(=O)Nc3cccc(F)c3N3CCC(C(=O)N4CCOC(C(C)N)C4)CC3)n2)ccn1` (stereo not shown) [Compound 95, N-[2-[4-[[2-(1-aminoethyl)-4-morpholinyl]carbonyl]-1-piperidinyl]-3-fluorophenyl]-4-(2-methyl-4-pyridinyl)-1H-imidazole-2-carboxamide], 251 to 1000 nM. Still for that read-out and setting: the figure for `N[C@@H]1CCCN(c2c(F)cccc2NC(=O)c2nc(-c3cnn(Cc4cccs4)c3)c[nH]2)C1` [Compound 5, N-[2-(3(R)-amino-1-piperidinyl)-3-fluorophenyl]-4-[1-(2-thienylmethyl)-1H-pyrazol-4-yl]-1H-imidazole-2-carboxamide] is 51 to 250 nM; for `NCC1CCN(c2c(F)cccc2NC(=O)c2nc(-c3cc(NCc4ccc(F)c(F)c4)ncn3)c[nH]2)CC1` [Compound 74, N-[2-[4-(aminomethyl)-1-piperidinyl]-3-fluorophenyl]-4-[6-[[(3,4-difluorophenyl)methyl]amino]-4-pyrimidinyl]-1H-imidazole-2-carboxamide] it is 51 to 250 nM. Same read-out and setting: under `Cc1cc(-c2c[nH]c(C(=O)Nc3cccc(F)c3N3CCC(CN)CC3)n2)nc(N)n1` [Compound 47, N-[2-[4-(aminomethyl)-1-piperidinyl]-3-fluorophenyl]-4-(2-amino-6-methyl-4-pyrimidinyl)-1H-imidazole-2-carboxamide] stands 1 to 50 nM; under `N[C@@H]1CCCN(c2c(F)cccc2NC(=O)c2nc(-c3cnn(Cc4cccnc4)c3)c[nH]2)C1` [Compound 13, N-[2-(3(R)-amino-1-piperidinyl)-3-fluorophenyl]-4-[1-(3-pyridinylmethyl)-1H-pyrazol-4-yl]-1H-imidazole-2-carboxamide], 51 to 250 nM; under `Cc1cc(-c2c[nH]c(C(=O)Nc3cccc(F)c3N3CCC(C(=O)N4CCOC(CN)C4)CC3)n2)ccn1` (stereo not shown) [Compound 89, N-[2-[4-[[2-(aminomethyl)-4-morpholinyl]carbonyl]-1-piperidinyl]-3-fluorophenyl]-4-(2-methyl-4-pyridinyl)-1H-imidazole-2-carboxamide], 51 to 250 nM.

As for `NCC1CCN(c2c(F)cccc2NC(=O)c2nc(-c3ccnc(N)c3)c[nH]2)CC1` [Compound 27, N-[2-[4-(aminomethyl)-1-piperidinyl]-3-fluorophenyl]-4-(2-amino-4-pyridinyl)-1H-imidazole-2-carboxamide], the IC50 lay within 1 to 50 nM.

Regarding `Nc1cc(-c2c[nH]c(C(=O)Nc3cccc(F)c3N3CCC[C@@H](N)C3)n2)ccn1` [Compound 20, N-[2-(−3(R)-amino-1-piperidinyl)-3-fluorophenyl]-4-(2-amino-4-pyridinyl)-1H-imidazole-2-carboxamide], the IC50 was 1 to 50 nM.

Take `Cc1ccc(C)c(-c2c[nH]c(C(=O)Nc3cccc(F)c3N3CCC(CN)CC3)n2)c1` [Compound 37, N-[2-[4-(aminomethyl)-1-piperidinyl]-3-fluorophenyl]-4-(2,5-dimethylphenyl)-1H-imidazole-2-carboxamide]: the IC50 was 1000 to 5000 nM. On to `N[C@@H]1CCCN(c2c(F)cccc2NC(=O)c2nc(-c3cn[nH]c3)c[nH]2)C1` [Compound 11, N-[2-(3(R)-amino-1-piperidinyl)-3-fluorophenyl]-4-(1H-pyrazol-4-yl)-1H-imidazole-2-carboxamide], for which the IC50 fell in the range of 51 to 250 nM.

The assay is the same for the next values; noted with them: Table 10; compounds 97-132.
`CNc1nc(-c2c[nH]c(C(=O)Nc3cccc(F)c3N3CCC(CN)CC3)n2)cc(N2C[C@H](C(=O)NC3CCCCC3)CC[C@@H]2C)n1` [Compound 116, (3R,6S)-1-(6-(2-(2-(4-(aminomethyl)piperidin-1-yl)-3-fluorophenylcarbamoyl)-1H-imidazol-4-yl)-2-(methylamino)pyrimidin-4-yl)-N-cyclohexyl-6-methylpiperidine-3-carboxamide]: the IC50 was 1 to 50 nM. Still for that read-out and setting: under `CNc1nc(-c2c[nH]c(C(=O)Nc3cccc(F)c3N3CCOCC3)n2)cc(N2CC(C(=O)NC3CCCCC3)CCC2C)n1` (racemic) [Compound 109, N-cyclohexyl-1-(6-(2-(3-fluoro-2-morpholinophenylcarbamoyl)-1H-imidazol-4-yl)-2-(methylamino)pyrimidin-4-yl)-6-methylpiperidine-3-carboxamide] stands 1 to 50 nM; under `CNc1nc(-c2c[nH]c(C(=O)Nc3cccc(F)c3N3CCC(CN)CC3)n2)cc(N2CC[C@@](OC)(C(N)=O)C2)n1` [Compound 128, (S)—N-(2-(4-(aminomethyl)piperidin-1-yl)-3-fluorophenyl)-4-(6-(3-carbamoyl-3-methoxypyrrolidin-1-yl)-2-(methylamino)pyrimidin-4-yl)-1H-imidazole-2-carboxamide], 1 to 50 nM; under `CNc1nc(-c2c[nH]c(C(=O)Nc3cccc(F)c3N3CCC4(CC3)CNC4)n2)cc(N2CC(C(=O)NC3CCCCC3)CCC2C)n1` (racemic) [Compound 118, N-cyclohexyl-1-(6-(2-(3-fluoro-2-(2,7-diazaspiro[3.5]nonan-7-yl)phenylcarbamoyl)-1H-imidazol-4-yl)-2-(methylamino)pyrimidin-4-yl)-6-methylpiperidine-3-carboxamide], 1 to 50 nM.

Source of the values: patent publication US8623857B2, “N-phenyl imidazole carboxamide inhibitors of 3-phosphoinositide-dependent protein kinase-1” (Merck Sharp & Dohme Corp., priority 2010, dated 2014).
